target: Matrix metalloproteinase-14 (Homo sapiens, UniProt P50281); test: Inhibition of recombinant human MMP14 assessed as substrate cleavage by measuring increase in fluorescence after 16 hrs

Row | Compound | IC50
1 | C[C@@H](C[C@@](C)(CS(=O)(=O)N1CCC(CCc2ccc(C(F)(F)F)cc2Cl)CC1)N(O)C=O)c1ncc(F)cn1 | 900 nM
2 | C[C@@H](C[C@@](C)(CS(=O)(=O)N1CCC(CCc2ccc(F)cc2Br)CC1)N(O)C=O)c1ncc(F)cn1 | 390 nM
3 | C[C@@H](C[C@@](C)(CS(=O)(=O)N1CCC(CCc2cc(F)ccc2Cl)CC1)N(O)C=O)c1ncc(F)cn1 | 56 nM

Next, values leading:

Row | IC50 | Compound
4 | 7.6 nM | C[C@@H](C[C@@](C)(CS(=O)(=O)N1CCN(c2ccc(F)cc2)CC1)N(O)C=O)c1ncc(F)cn1
5 | 360 nM | Cc1cc(Cl)ccc1CCC1CCN(S(=O)(=O)C[C@](C)(C[C@H](C)c2ncc(F)cn2)N(O)C=O)CC1
6 | 3600 nM | C[C@@H](C[C@@](C)(CS(=O)(=O)N1CCC(CCc2ccc(F)cc2C(F)(F)F)CC1)N(O)C=O)c1ncc(F)cn1

target: 72 kDa type IV collagenase (Homo sapiens, UniProt P08253); test: Inhibition of recombinant human MMP2 assessed as substrate cleavage by measuring increase in fluorescence after 16 hrs
Sequence (P08253 whole entry): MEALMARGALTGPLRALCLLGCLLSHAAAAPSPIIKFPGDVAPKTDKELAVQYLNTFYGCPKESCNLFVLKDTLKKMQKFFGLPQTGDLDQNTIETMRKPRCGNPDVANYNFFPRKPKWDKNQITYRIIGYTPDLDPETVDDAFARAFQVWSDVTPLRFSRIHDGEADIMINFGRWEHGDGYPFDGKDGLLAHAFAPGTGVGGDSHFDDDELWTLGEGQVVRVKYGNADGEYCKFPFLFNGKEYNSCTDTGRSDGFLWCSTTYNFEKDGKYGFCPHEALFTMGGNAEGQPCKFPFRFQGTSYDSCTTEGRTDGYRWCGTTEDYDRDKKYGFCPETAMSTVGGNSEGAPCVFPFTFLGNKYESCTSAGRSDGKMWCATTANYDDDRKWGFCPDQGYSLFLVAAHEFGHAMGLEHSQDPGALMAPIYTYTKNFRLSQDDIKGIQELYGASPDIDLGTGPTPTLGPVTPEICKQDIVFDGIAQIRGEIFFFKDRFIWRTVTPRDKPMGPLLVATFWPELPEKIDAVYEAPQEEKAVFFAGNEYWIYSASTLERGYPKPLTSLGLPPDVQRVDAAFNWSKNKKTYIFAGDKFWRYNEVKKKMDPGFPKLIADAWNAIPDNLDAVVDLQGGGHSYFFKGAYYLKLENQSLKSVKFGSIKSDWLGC

Row | Compound | IC50
7 | C[C@@H](C[C@@](C)(CS(=O)(=O)N1CCC(CCc2ccc(C(F)(F)F)cc2Cl)CC1)N(O)C=O)c1ncc(F)cn1 | 170 nM
8 | C[C@@H](C[C@@](C)(CS(=O)(=O)N1CCC(CCc2ccc(F)cc2Br)CC1)N(O)C=O)c1ncc(F)cn1 | 1700 nM
9 | C[C@@H](C[C@@](C)(CS(=O)(=O)N1CCC(CCc2cc(F)ccc2Cl)CC1)N(O)C=O)c1ncc(F)cn1 | 500 nM

The remaining lines, values ahead:

Row | IC50 | Compound
10 | 530 nM | Cc1cc(Cl)ccc1CCC1CCN(S(=O)(=O)C[C@](C)(C[C@H](C)c2ncc(F)cn2)N(O)C=O)CC1
11 | 1900 nM | C[C@@H](C[C@@](C)(CS(=O)(=O)N1CCC(CCc2ccc(F)cc2C(F)(F)F)CC1)N(O)C=O)c1ncc(F)cn1

target: Collagenase 3 (Homo sapiens, UniProt P45452); test: Inhibition of recombinant human MMP13 assessed as substrate cleavage by measuring increase in fluorescence after 16 hrs

Row | Compound | IC50
12 | C[C@@H](C[C@@](C)(CS(=O)(=O)N1CCC(CCc2ccc(C(F)(F)F)cc2Cl)CC1)N(O)C=O)c1ncc(F)cn1 | 260 nM
13 | C[C@@H](C[C@@](C)(CS(=O)(=O)N1CCC(CCc2ccc(F)cc2Br)CC1)N(O)C=O)c1ncc(F)cn1 | 2300 nM
14 | C[C@@H](C[C@@](C)(CS(=O)(=O)N1CCC(CCc2cc(F)ccc2Cl)CC1)N(O)C=O)c1ncc(F)cn1 | 570 nM

Results, then the compound that gave them:

Row | IC50 | Compound
15 | 7.6 nM | C[C@@H](C[C@@](C)(CS(=O)(=O)N1CCN(c2ccc(F)cc2)CC1)N(O)C=O)c1ncc(F)cn1
16 | 370 nM | Cc1cc(Cl)ccc1CCC1CCN(S(=O)(=O)C[C@](C)(C[C@H](C)c2ncc(F)cn2)N(O)C=O)CC1
17 | 16000 nM | C[C@@H](C[C@@](C)(CS(=O)(=O)N1CCC(CCc2ccc(F)cc2C(F)(F)F)CC1)N(O)C=O)c1ncc(F)cn1

target: Cytochrome P450 3A4 (Homo sapiens, UniProt P08684); test: Inhibition of CYP3A4; assay type: ADME
Sequence (P08684 whole entry): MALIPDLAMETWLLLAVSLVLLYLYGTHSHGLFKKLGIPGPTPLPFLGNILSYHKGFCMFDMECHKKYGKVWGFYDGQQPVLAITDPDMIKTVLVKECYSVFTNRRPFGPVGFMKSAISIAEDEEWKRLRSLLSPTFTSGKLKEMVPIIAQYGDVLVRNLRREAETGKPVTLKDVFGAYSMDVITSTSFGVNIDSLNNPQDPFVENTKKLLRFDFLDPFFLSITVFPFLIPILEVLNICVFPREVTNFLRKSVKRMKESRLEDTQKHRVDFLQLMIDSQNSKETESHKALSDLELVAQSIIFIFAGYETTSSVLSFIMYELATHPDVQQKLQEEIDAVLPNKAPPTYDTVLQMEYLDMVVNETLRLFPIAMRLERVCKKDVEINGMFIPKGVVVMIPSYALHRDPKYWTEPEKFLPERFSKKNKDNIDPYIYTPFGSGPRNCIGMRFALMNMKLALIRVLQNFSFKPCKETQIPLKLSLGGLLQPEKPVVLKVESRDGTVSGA

Row | IC50 | Compound
18 | > 10 µM | C[C@@H](C[C@@](C)(CS(=O)(=O)N1CCN(c2ccc(F)cc2)CC1)N(O)C=O)c1ncc(F)cn1

target: T1, A disintegrin and metalloproteinase with thrombospondin motifs 4 (Homo sapiens, UniProt O75173); test: Inhibition of ADAMTS-4 assessed as substrate cleavage by measuring increase in fluorescence after 16 hrs
T1 sequence (O75173 whole entry): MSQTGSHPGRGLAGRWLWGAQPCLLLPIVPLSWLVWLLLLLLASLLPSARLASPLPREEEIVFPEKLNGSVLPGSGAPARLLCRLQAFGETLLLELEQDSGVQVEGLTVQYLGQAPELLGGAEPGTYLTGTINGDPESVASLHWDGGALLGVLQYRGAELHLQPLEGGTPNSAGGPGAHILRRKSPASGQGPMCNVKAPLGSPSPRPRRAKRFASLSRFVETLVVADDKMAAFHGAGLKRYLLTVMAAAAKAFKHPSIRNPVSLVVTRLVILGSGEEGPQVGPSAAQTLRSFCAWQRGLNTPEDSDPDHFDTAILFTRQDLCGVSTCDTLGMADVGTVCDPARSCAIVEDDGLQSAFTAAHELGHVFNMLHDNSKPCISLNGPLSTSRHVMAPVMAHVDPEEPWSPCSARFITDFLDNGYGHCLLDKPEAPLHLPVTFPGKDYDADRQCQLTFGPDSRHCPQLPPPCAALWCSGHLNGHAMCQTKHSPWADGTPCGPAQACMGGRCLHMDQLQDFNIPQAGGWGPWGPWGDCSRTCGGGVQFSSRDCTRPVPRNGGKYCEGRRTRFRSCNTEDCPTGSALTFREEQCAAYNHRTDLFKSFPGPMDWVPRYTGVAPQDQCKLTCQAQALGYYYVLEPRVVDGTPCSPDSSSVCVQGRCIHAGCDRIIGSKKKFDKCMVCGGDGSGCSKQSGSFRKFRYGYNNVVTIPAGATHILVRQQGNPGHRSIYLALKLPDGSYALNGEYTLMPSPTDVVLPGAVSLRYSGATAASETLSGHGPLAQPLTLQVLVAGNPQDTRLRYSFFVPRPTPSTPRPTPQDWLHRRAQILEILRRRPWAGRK

Row | Compound | IC50
19 | C[C@@H](C[C@@](C)(CS(=O)(=O)N1CCC(CCc2ccc(C(F)(F)F)cc2Cl)CC1)N(O)C=O)c1ncc(F)cn1 | 0.48 nM
20 | C[C@@H](C[C@@](C)(CS(=O)(=O)N1CCC(CCc2ccc(F)cc2Br)CC1)N(O)C=O)c1ncc(F)cn1 | 0.48 nM
21 | C[C@@H](C[C@@](C)(CS(=O)(=O)N1CCC(CCc2cc(F)ccc2Cl)CC1)N(O)C=O)c1ncc(F)cn1 | 2.8 nM

More lines, now with the values ahead:

Row | IC50 | Compound
22 | 7.3 nM | C[C@@H](C[C@@](C)(CS(=O)(=O)N1CCN(c2ccc(F)cc2)CC1)N(O)C=O)c1ncc(F)cn1
23 | 0.36 nM | Cc1cc(Cl)ccc1CCC1CCN(S(=O)(=O)C[C@](C)(C[C@H](C)c2ncc(F)cn2)N(O)C=O)CC1
24 | 0.52 nM | C[C@@H](C[C@@](C)(CS(=O)(=O)N1CCC(CCc2ccc(F)cc2C(F)(F)F)CC1)N(O)C=O)c1ncc(F)cn1

target: Disintegrin and metalloproteinase domain-containing protein 17 (Homo sapiens, UniProt P78536); test: Inhibition of TACE assessed as substrate cleavage by measuring increase in fluorescence after 16 hrs
Sequence (P78536 whole entry, the tested form may be a part): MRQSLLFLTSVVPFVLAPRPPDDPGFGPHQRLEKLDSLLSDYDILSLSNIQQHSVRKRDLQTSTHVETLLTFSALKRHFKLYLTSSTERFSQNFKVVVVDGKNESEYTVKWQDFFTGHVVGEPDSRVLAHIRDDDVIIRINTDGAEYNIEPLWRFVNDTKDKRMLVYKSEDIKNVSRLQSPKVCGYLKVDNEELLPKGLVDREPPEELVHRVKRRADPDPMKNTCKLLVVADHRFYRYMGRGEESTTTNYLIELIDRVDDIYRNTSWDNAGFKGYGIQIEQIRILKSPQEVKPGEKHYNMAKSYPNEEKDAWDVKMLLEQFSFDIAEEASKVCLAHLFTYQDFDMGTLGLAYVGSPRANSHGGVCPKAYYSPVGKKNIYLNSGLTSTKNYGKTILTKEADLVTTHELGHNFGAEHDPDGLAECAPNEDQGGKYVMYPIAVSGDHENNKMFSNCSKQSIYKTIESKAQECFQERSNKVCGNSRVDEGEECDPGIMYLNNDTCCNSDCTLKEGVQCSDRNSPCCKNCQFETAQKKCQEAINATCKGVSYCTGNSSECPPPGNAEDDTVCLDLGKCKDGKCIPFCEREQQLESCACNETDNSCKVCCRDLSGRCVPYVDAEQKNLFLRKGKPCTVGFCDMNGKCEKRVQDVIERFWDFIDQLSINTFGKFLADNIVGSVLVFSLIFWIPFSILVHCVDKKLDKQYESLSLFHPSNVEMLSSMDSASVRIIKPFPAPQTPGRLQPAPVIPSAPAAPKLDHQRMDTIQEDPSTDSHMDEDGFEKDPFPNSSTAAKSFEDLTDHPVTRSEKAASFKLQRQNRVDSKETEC

Row | IC50 | Compound
25 | 19 nM | C[C@@H](C[C@@](C)(CS(=O)(=O)N1CCC(CCc2ccc(F)cc2C(F)(F)F)CC1)N(O)C=O)c1ncc(F)cn1

target: T2, Interstitial collagenase (Homo sapiens, UniProt P03956); test: Inhibition of recombinant human MMP1 assessed as substrate cleavage by measuring increase in fluorescence after 16 hrs
T2 sequence (P03956 whole entry): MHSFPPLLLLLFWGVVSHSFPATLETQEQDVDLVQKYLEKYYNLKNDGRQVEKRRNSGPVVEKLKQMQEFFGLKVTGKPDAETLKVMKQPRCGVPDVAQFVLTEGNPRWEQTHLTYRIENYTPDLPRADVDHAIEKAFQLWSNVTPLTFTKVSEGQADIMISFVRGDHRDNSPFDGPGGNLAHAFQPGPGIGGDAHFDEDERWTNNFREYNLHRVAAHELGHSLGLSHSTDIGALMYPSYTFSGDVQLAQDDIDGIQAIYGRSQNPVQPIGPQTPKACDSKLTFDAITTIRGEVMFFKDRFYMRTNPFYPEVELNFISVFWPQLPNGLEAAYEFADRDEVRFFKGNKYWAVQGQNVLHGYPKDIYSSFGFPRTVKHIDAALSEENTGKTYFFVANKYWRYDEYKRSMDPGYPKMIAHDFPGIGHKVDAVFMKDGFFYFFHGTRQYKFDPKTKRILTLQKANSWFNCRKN

Row | Compound | IC50
26 | C[C@@H](C[C@@](C)(CS(=O)(=O)N1CCC(CCc2ccc(C(F)(F)F)cc2Cl)CC1)N(O)C=O)c1ncc(F)cn1 | > 100 µM
27 | C[C@@H](C[C@@](C)(CS(=O)(=O)N1CCC(CCc2ccc(F)cc2Br)CC1)N(O)C=O)c1ncc(F)cn1 | > 8 µM
28 | C[C@@H](C[C@@](C)(CS(=O)(=O)N1CCC(CCc2cc(F)ccc2Cl)CC1)N(O)C=O)c1ncc(F)cn1 | > 9.6 µM

Now from value to compound:

Row | IC50 | Compound
29 | 0.98 µM | C[C@@H](C[C@@](C)(CS(=O)(=O)N1CCN(c2ccc(F)cc2)CC1)N(O)C=O)c1ncc(F)cn1
30 | > 8.5 µM | Cc1cc(Cl)ccc1CCC1CCN(S(=O)(=O)C[C@](C)(C[C@H](C)c2ncc(F)cn2)N(O)C=O)CC1
31 | 9.7 µM | C[C@@H](C[C@@](C)(CS(=O)(=O)N1CCC(CCc2ccc(F)cc2C(F)(F)F)CC1)N(O)C=O)c1ncc(F)cn1

target: Voltage-gated inwardly rectifying potassium channel KCNH2 (Homo sapiens, UniProt Q12809); test: Inhibition of human ERG
Sequence (Q12809 whole entry): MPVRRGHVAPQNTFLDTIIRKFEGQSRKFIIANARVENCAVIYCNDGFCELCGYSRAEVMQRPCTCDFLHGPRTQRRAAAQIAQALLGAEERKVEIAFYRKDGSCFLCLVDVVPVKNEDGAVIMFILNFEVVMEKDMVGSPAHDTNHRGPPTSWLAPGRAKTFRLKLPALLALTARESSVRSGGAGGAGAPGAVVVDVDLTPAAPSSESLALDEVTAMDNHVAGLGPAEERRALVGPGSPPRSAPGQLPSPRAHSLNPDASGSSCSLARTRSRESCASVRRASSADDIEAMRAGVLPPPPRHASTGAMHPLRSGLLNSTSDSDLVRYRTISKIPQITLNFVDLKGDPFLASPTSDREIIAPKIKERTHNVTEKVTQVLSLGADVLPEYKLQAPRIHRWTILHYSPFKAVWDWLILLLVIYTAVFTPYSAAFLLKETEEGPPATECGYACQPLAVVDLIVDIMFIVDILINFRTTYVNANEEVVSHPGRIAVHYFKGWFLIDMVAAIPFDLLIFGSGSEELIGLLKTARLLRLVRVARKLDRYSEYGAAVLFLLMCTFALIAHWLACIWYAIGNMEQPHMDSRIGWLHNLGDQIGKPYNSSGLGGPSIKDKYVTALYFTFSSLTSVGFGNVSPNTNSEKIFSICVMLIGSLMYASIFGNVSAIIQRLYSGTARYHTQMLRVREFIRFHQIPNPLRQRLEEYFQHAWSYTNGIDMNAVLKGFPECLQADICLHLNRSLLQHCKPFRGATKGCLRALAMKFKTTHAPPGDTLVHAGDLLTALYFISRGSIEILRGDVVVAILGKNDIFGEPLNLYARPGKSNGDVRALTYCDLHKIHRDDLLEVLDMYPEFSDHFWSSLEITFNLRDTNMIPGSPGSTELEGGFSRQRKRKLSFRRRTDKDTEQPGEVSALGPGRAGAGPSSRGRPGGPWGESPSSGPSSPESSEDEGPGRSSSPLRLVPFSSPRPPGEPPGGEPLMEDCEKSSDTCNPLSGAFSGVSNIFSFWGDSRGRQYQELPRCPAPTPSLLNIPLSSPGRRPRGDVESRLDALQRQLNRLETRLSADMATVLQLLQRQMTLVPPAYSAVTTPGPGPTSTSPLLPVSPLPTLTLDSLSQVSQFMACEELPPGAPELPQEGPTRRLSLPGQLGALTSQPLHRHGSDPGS

Row | Compound | IC50
32 | C[C@@H](C[C@@](C)(CS(=O)(=O)N1CCN(c2ccc(F)cc2)CC1)N(O)C=O)c1ncc(F)cn1 | 21 µM

Reference: ChEMBL document CHEMBL1681676, “The design and synthesis of novel N-hydroxyformamide inhibitors of ADAM-TS4 for the treatment of osteoarthritis” (Bioorg Med Chem Lett, 2011)
